# Where two headings read alike, the source gives them in different places.
# How the values were obtained:
# [1] = Dry grinding simulation experiments; type: physicochemical; details: ground manually with mortar and pestle
# Procedure: About 10 mg of Form P was ground manually with a mortar and a pestle for 1, 3 and 5 minutes.
# About 10 mg of Form C was ground manually with a mortar and a pestle for 5 minutes.
# [2] = physchem; details: 37 °C, thermodynamic from solid
# Procedure: (§2) Non-milled Form P (10 mg, purity 100%) was weighed into a 20 mL glass vial. 5 mL of solubility medium was added. Obtained suspensions were stirred at 37° C. at 400 rpm and sampled at 24 hours. The samples were centrifuged at 37 C at 14,000 rpm for 5 min. Supernatants were analyzed by HPLC and pH meter for solubility and pH value, respectively. Residual solids (wet cakes) from the 24 hours samples were also characterized by XRPD to determine physical form.
# [3] = Hygroscopicity by dynamic vapor sorption (DVS); type: physicochemical
# Procedure: Dynamic vapor sorption (DVS) was performed on an Intrinsic, Advantage or Adventure with an oven temperature of 25° C. using water as a solvent. The sample mass was about 5-10 mg using the following method: • Cycle: 40-0-95-0-40% RH • Stage Step: 10% • Equilibrium: 0.002 dm/dt (%/min) • Minimum dm/dt stability duration: 60 min • Maximum dm/dt stage time: 360 min.
# Hygroscopicity of Form P was evaluated by dynamic vapor sorption (DVS) test at 25° C. Form P is non-hygroscopic at 80% RH; about 0.1% water uptake at 80% RH. Form P is slightly hygroscopic from 80% RH-95% RH: About 1.6% water uptake from 80% RH to 95% RH.
# [4] = Equilibration with solvents; type: physicochemical
# Procedure: Obtained suspensions were filtered through a 0.45 μm nylon membrane filter by centrifugation at 14,000 rpm. Solid parts (wet cakes) were investigated by XRPD. For samples with different XRPD patterns, additional analysis including DSC, TGA, ^1H-NMR were performed.
# (§1) Obtained suspensions were filtered through a 0.45 μm nylon membrane filter by centrifugation at 14,000 rpm.
# as §1
# [5] = physchem; details: water, thermodynamic from solid, Approximate solubility
# Procedure: Form P (5 mg, purity 100%) was weighed to a 2 mL glass vial. 20 μL aliquots of each solvent were added to dissolve the drug substance at 25 C. […] Vortex and sonication were applied to assist dissolution. Max. volume of each solvent added is 1 mL. For obtained suspensions (Exp. ID 1, 10 and 11) after addition of 1 mL solvent at 25° C., they were placed at 50° C. Approximate solubility was determined by visual observation.
# [6] = Form change on heating, dehydration or desolvation (TGA, DSC, variable temperature XRPD); type: physicochemical; details: heated above 176° C. using milled Form P, variable temperature XRPD
# Procedure: Relative stability of the anhydrates Form R and Form P was investigated by variable temperature XRPD and competitive equilibration experiments.
# Relative stability of the anhydrates Form B, Form X, Form Y and Form C was investigated by variable temperature XRPD. Form B converted to Form X, Form Y and Form C after heating to 150° C., 176° C. and 180° C., respectively.
# [7] = cake dried under vacuum
# Excerpt: The cake of Form P was dried under vacuum at different temperatures to evaluate the chemical stability of dry cake.
# [8] = 24 hours; for XRPD: residual solids; for pH: supernatant
# Procedure: as §2
# [9] = 10% relative humidity at 25° C.
# [10] = 20% relative humidity at 25° C.
# [11] = 30% relative humidity at 25° C.
# [12] = 40% relative humidity at 25° C.
# [13] = 50% relative humidity at 25° C.
# [14] = 60% relative humidity at 25° C.
# [15] = 70% relative humidity at 25° C.
# [16] = 80% relative humidity at 25° C.
# [17] = 90% relative humidity at 25° C.
# [18] = 95% relative humidity at 25° C.
# [19] = pH 1.2 HCl buffer (0.1N), 37° C.
# [20] = pH 3 citrate buffer (50 mM), 37° C.
# [21] = pH 5 acetate buffer (50 mM), 37° C.
# [22] = pH 7 phosphate buffer (50 mM), 37° C.
smiles,measurement,setting,value
"Cc1nc(-c2c[nH]c3c(C#N)cccc23)cnc1OCC(C)(C)O [Form P, 3-(5-(2-hydroxy-2-methylpropoxy)-6-methylpyrazin-2-yl)-1H-indole-7-carbonitrile]",Comments (crystallinity),[1]; 1 min,No obvious change in crystallinity
same,XRPD,[1]; 1 min,Form P
same,Comments (crystallinity),[1]; 3 min,No obvious change in crystallinity
same,XRPD,[1]; 3 min,Form P
same,Comments (crystallinity),[1]; 5 min,No obvious change in crystallinity
same,XRPD,[1]; 5 min,Form P
same,solubility at 24 h,"[2]; pH 1.2, simulated gastric fluid",7.2 µg/mL
same,solubility at 24 h,"[2]; pH 1.6, fassgf or other biorelevant",5.1 µg/mL
same,solubility at 24 h,"[2]; pH 3, aqueous buffer",2.9 µg/mL
same,solubility at 24 h,"[2]; pH 5, aqueous buffer",2.3 µg/mL
same,solubility at 24 h,"[2]; pH 5, fessif",111 µg/mL
same,solubility at 24 h,"[2]; pH 6.5, fassif",20.9 µg/mL
same,solubility at 24 h,"[2]; pH 7, aqueous buffer",2.4 µg/mL
same,solubility at 24 h,[2]; water,2.7 µg/mL
same,1st desorp. Weight % change,[3]; 0% relative humidity at 25° C.,0.1%
same,1st sorp. Weight % change,[3]; 0% relative humidity at 25° C.,0.1%
same,2nd desorp. Weight % change,[3]; 0% relative humidity at 25° C.,0.0%
same,2nd sorp. Weight % change,[3]; 0% relative humidity at 25° C.,0.0%
same,1st desorp. Weight % change,[3]; [9],0.1%
same,1st sorp. Weight % change,[3]; [9],0.1%
same,2nd desorp. Weight % change,[3]; [9],0.0%
same,2nd sorp. Weight % change,[3]; [9],0.0%
same,1st desorp. Weight % change,[3]; [10],0.1%
same,1st sorp. Weight % change,[3]; [10],0.1%
same,2nd desorp. Weight % change,[3]; [10],0.0%
same,2nd sorp. Weight % change,[3]; [10],0.0%
same,Form after the DVS test,[3]; 25° C.,still in Form P
same,1st desorp. Weight % change,[3]; [11],0.2%
same,1st sorp. Weight % change,[3]; [11],0.1%
same,2nd desorp. Weight % change,[3]; [11],0.1%
same,2nd sorp. Weight % change,[3]; [11],0.0%
same,1st desorp. Weight % change,[3]; [12],0.2%
same,1st sorp. Weight % change,[3]; [12],0.1%
same,2nd desorp. Weight % change,[3]; [12],0.1%
same,2nd sorp. Weight % change,[3]; [12],0.0%
same,1st sorp. Weight % change,[3]; [13],0.1%
same,2nd desorp. Weight % change,[3]; [13],0.1%
same,1st sorp. Weight % change,[3]; [14],0.1%
same,2nd desorp. Weight % change,[3]; [14],0.2%
same,1st sorp. Weight % change,[3]; [15],0.1%
same,2nd desorp. Weight % change,[3]; [15],0.3%
same,1st sorp. Weight % change,[3]; [16],0.2%
same,2nd desorp. Weight % change,[3]; [16],0.4%
same,1st sorp. Weight % change,[3]; [17],0.8%
same,2nd desorp. Weight % change,[3]; [17],0.9%
same,1st sorp. Weight % change,[3]; [18],1.8%
same,2nd desorp. Weight % change,[3]; [18],1.8%
same,Hygroscopicity,"[3]; at 80% RH, 25° C.",non-hygroscopic (water uptake <0.2% = non-hygroscopic)
same,water uptake,"[3]; at 80% RH, 25° C.",about 0.1%
same,water uptake,"[3]; from 80% RH to 95% RH, 25° C.",About 1.6%
same,Hygroscopicity,"[3]; from 80% RH-95% RH, 25° C.",slightly hygroscopic (water uptake ≥0.2% but <2% = slightly hygroscopic)
same,XRPD after equilibration,"[4]; 2-MeTHF, 25° C., 2 weeks",Form P
same,XRPD after equilibration,"[4]; 2-MeTHF, 50° C., 1 week",Form P
same,XRPD after equilibration,"[4]; 2-MeTHF/heptane (v:v = 1:1), 25° C., 2 weeks",Form P
same,XRPD after equilibration,"[4]; 2-MeTHF/heptane (v:v = 1:1), 50° C., 1 week",Form P
same,XRPD after equilibration,"[4]; 2-MeTHF/heptane (v:v = 3:1), 25° C., 2 weeks",Form P
same,XRPD after equilibration,"[4]; 2-MeTHF/heptane (v:v = 3:1), 50° C., 1 week",Form P
same,XRPD after equilibration,"[4]; 2-Propanol, 25° C., 2 weeks",Form P
same,XRPD after equilibration,"[4]; 2-Propanol, 50° C., 1 week",Form P
same,XRPD after equilibration,"[4]; Acetone, 25° C., 2 weeks",Form P
same,XRPD after equilibration,"[4]; Acetone, 50° C., 1 week",Form P
same,XRPD after equilibration,"[4]; Acetone/water (v:v = 30:70) a.w. = 0.92, 50° C., 1 week",Form P
same,XRPD after equilibration,"[4]; Acetonitrile, 25° C., 2 weeks",Form P
same,XRPD after equilibration,"[4]; Acetonitrile, 50° C., 1 week",Form P
same,XRPD after equilibration,"[4]; DMSO, 25° C., 2 weeks",Form U
same,Comments (appearance),"[4]; DMSO, 50° C., 1 week, (500 mg/mL)",Clear solution
same,XRPD after equilibration,"[4]; DMSO/water (v:v = 40:60) a.w. = 0.77, 50° C., 1 week",Form P
same,XRPD after equilibration,"[4]; Ethanol, 25° C., 2 weeks",Form P
same,XRPD after equilibration,"[4]; Ethanol, 50° C., 1 week",Form P
same,XRPD after equilibration,"[4]; Ethanol/water (v:v = 40:60) a.w. = 0.91, 25° C., 2 weeks",Form P
same,XRPD after equilibration,"[4]; Ethanol/water (v:v = 40:60) a.w. = 0.91, 50° C., 1 week",Form P
same,XRPD after equilibration,"[4]; Ethyl acetate, 25° C., 2 weeks",Form P
same,XRPD after equilibration,"[4]; Ethyl acetate, 50° C., 1 week",Form P
same,XRPD after equilibration,"[4]; Heptane, 25° C., 2 weeks",Form P
same,XRPD after equilibration,"[4]; Heptane, 50° C., 1 week",Form P
same,XRPD after equilibration,"[4]; Isopropyl acetate, 25° C., 2 weeks",Form P
same,XRPD after equilibration,"[4]; Isopropyl acetate, 50° C., 1 week",Form P
same,XRPD after equilibration,"[4]; MEK, 25° C., 2 weeks",Form P
same,XRPD after equilibration,"[4]; MEK, 50° C., 1 week",Form P
same,XRPD after equilibration,"[4]; MTBE, 25° C., 2 weeks",Form P
same,XRPD after equilibration,"[4]; MTBE, 50° C., 1 week",Form P
same,XRPD after equilibration,"[4]; Methanol, 25° C., 2 weeks",Form B + Form W
same,XRPD after equilibration,"[4]; Methanol, 50° C., 1 week",Form P
same,XRPD after equilibration,"[4]; NMP, 25° C., 2 weeks",Form Q
same,Comments (appearance),"[4]; NMP, 50° C., 1 week, (500 mg/mL)",Clear solution
same,XRPD after equilibration,"[4]; THF, 25° C., 2 weeks",Form P
same,Comments (appearance),"[4]; THF, 50° C., 1 week, (250 mg/mL)",Clear solution
same,Comments (appearance),"[4]; THF/water (v:v = 80:20) a.w. = 0.91, 50° C., 1 week, (500 mg/mL)",Clear solution
same,XRPD after equilibration,"[4]; Toluene, 25° C., 2 weeks",Form P
same,XRPD after equilibration,"[4]; Toluene, 50° C., 1 week",Form P
same,XRPD after equilibration,"[4]; Water, 25° C., 2 weeks",Form P
same,XRPD after equilibration,"[4]; Water, 50° C., 1 week",Form P
same,solubility,[5]; 25 °C,< 5000 µg/mL
same,solubility,[5]; 50 °C,< 5000 µg/mL
same,Form after heating,[6],converted to Form R
same,Purity after holding,[7]; 0 h,Purity: 100%
same,Purity after holding,"[7]; 40° C., 22 h",100%
same,Purity after holding,"[7]; 40° C., 4 d",100%
same,Purity after holding,"[7]; 50° C., 22 h",100%
same,Purity after holding,"[7]; 50° C., 4 d",100%
same,Purity after holding,"[7]; 60° C., 22 h",100%
same,Purity after holding,"[7]; 60° C., 4 d",100%
same,XRPD,"[8]; FaSSGF, pH 1.6, 37° C.",Form P
same,XRPD,"[8]; FaSSIF-v1, pH 6.5, 37° C.",Form P
same,XRPD,"[8]; FeSSIF-v1, pH 5.0, 37° C.",Form P
same,XRPD,"[8]; Water, 37° C.",Form P
same,XRPD,[8]; [19],Form P
same,XRPD,[8]; [20],Form P
same,XRPD,[8]; [21],Form P + one additional peak (It
same,XRPD,[8]; [22],Form P
same,pH,"[8]; FaSSGF, pH 1.6, 37° C.",1.5
same,pH,"[8]; FaSSIF-v1, pH 6.5, 37° C.",6.4
same,pH,"[8]; FeSSIF-v1, pH 5.0, 37° C.",4.9
same,pH,"[8]; Water, 37° C.",7.7
same,pH,[8]; [19],1.1
same,pH,[8]; [20],3.0
same,pH,[8]; [21],4.9
same,pH,[8]; [22],6.9
